Holding throughout (format): cell-based
The test system of one experiment is EBC1 cells. Nature of the experiment: Assay for inhibiting the proliferation of EBC1 cells (CCK-8). To be noted: Homo sapiens, EBC-1. An outline of the steps: (§1)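 Cells seeded in 96-well plates overnight, then exposed 72 h to 9 three-fold dilutions of compound (0.25% DMSO final). Viability by CCK-8 (1-2 h at 37° C., OD 450 nm), survival normalized to untreated and cell-free blanks; IC50 by curve fitting.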

The test system of another experiment is MHCC97H cells. Nature of the experiment: Assay for inhibiting the proliferation of MHCC97H cells (CCK-8). To be noted: Homo sapiens. A digest of the protocol:
as §1

Experiment [1] relates to Ba/F3 LMNA-NTRK1-G595R cells. Nature of the experiment: Assay for inhibiting the proliferation of Ba/F3 LMNA-NTRK1-G595R cells (CCK-8). To be noted: Mus musculus, BaF3. An outline of the steps:
as §1

Experimental findings from patent publication US12202835B2, “Substituted aromatic ring-linked dioxinoquinazolines and dioxinoquinolines as kinase inhibitors” (BEIJING SCITECH-MQ PHARMACEUTICALS LIMITED, priority 2018, dated 2025) are described below.

Each structure is given as a SMILES string. Bounds are passed on as bounds.

As to `Cn1cc(C(=O)Nc2ccc(Oc3ccnc4cc(OCCCN5CCOCC5)c5c(c34)OCCO5)c(F)c2)c(=O)n(-c2ccc(F)cc2)c1=O` [Example 15, N-(3-fluoro-4-((5-(3-morpholinopropoxy)-2,3-dihydro-[1,4]dioxino[2,3-f]quinolin-10-yl)oxy)phenyl)-3-(4-fluorophenyl)-1-methyl-2,4-dioxo-1,2,3,4-tetrahydropyrimidine-5-carboxamide], the IC50 in the experiment with EBC1 cells is not above 50 nM; in the experiment on MHCC97H cells, not above 50 nM; in experiment [1] it was 50 to 200 nM.

For `Cn1cc(C(=O)Nc2ccc(Oc3ccnc4cc(OCCCN5CCCCC5)c5c(c34)OCCO5)c(F)c2)c(=O)n(-c2ccc(F)cc2)c1=O` [Example 39, N-(3-fluoro-4-((5-(3-(piperidin-1-yl)propoxy)-2,3-dihydro-[1,4]dioxino[2,3-f]quinolin-10-yl)oxy)phenyl)-3-(4-fluorophenyl)-1-methyl-2,4-dioxo-1,2,3,4-tetrahydropyrimidine-5-carboxamide], the IC50 with EBC1 cells was not above 50 nM; in the experiment on MHCC97H cells it was 50 to 200 nM; in experiment [1], 50 to 200 nM.

Take `CCn1cc(C(=O)Nc2ccc(Oc3ccnc4cc(OCCCN5CCCCC5)c5c(c34)OCCO5)c(F)c2)c(=O)n(-c2ccc(F)cc2)c1=O` [Example 41, N-(3-fluoro-4-((5-(3-(piperidin-1-yl)propoxy)-2,3-dihydro-[1,4]dioxino[2,3-f]quinolin-10-yl)oxy)phenyl)-3-(4-fluorophenyl)-1-ethyl-2,4-dioxo-1,2,3,4-tetrahydropyrimidine-5-carboxamide]: the IC50 is not above 50 nM with EBC1 cells, 50 to 200 nM in the experiment with MHCC97H cells and 50 to 200 nM in experiment [1].

On to `COCCOc1cc2nccc(Oc3ccc(NC(=O)c4cn(C)c(=O)n(-c5ccc(F)cc5)c4=O)cc3F)c2c2c1OCCO2` [Example 42, N-(3-fluoro-4-((5-(2-methoxyethoxy)-2,3-dihydro-[1,4]dioxino[2,3-f]quinolin-10-yl)oxy)phenyl)-3-(4-fluorophenyl)-1-methyl-2,4-dioxo-1,2,3,4-tetrahydropyrimidine-5-carboxamide], for which the IC50 was not above 50 nM in the experiment with EBC1 cells, not above 50 nM with MHCC97H cells and 50 to 200 nM in experiment [1].

For `COc1cc2nccc(Oc3cc(Cl)c(NC(=O)c4cn(C)c(=O)n(-c5ccc(F)cc5)c4=O)cc3F)c2c2c1OCCO2` [Example 116, N-(2-chloro-5-fluoro-4-((5-methoxy-2,3-dihydro-[1,4]dioxino[2,3-f]quinolin-10-yl)oxy)phenyl)-3-(4-fluorophenyl)-1-methyl-2,4-dioxo-1,2,3,4-tetrahydropyrimidine-5-carboxamide], the IC50 was not above 50 nM in the experiment with EBC1 cells, 50 to 200 nM with MHCC97H cells and not above 50 nM in experiment [1].

The compound `Cn1cc(C(=O)Nc2ccc(Oc3ccnc4ccc5c(c34)OCCO5)cc2F)c(=O)n(-c2ccc(F)cc2)c1=O` [Example 162, N-(4-((2,3-dihydro-[1,4]dioxino[2,3-f]quinolin-10-yl)oxy)-2-fluorophenyl)-3-(4-fluorophenyl)-1-methyl-2,4-dioxo-1,2,3,4-tetrahydropyrimidine-5-carboxamide] had an IC50 in experiment [1] of 50 to 200 nM.

For `COc1cc2nccc(Oc3cc(C)c(NC(=O)c4cn(C)c(=O)n(-c5ccc(F)cc5)c4=O)cc3F)c2c2c1OCCO2` [Example 177, N-(5-fluoro-4-((5-methoxy-2,3-dihydro-[1,4]dioxino[2,3-f]quinolin-10-yl)oxy)-2-methylphenyl)-3-(4-fluorophenyl)-1-methyl-2,4-dioxo-1,2,3,4-tetrahydropyrimidine-5-carboxamide], the IC50 in the experiment on MHCC97H cells was 50 to 200 nM; in experiment [1], not above 50 nM.

As for `COCCOc1cc2nccc(Oc3cc(C)c(NC(=O)c4cn(C)c(=O)n(-c5ccc(F)cc5)c4=O)cc3F)c2c2c1OCCO2` [Example 179, N-(5-fluoro-4-((5-(2-methoxyethoxy)-2,3-dihydro-[1,4]dioxino[2,3-f]quinolin-10-yl)oxy)-2-methylphenyl)-3-(4-fluorophenyl)-1-methyl-2,4-dioxo-1,2,3,4-tetrahydropyrimidine-5-carboxamide], the concentration for half-maximal inhibition (IC50) (in the experiment with MHCC97H cells; in experiment [1]) was not above 50 nM each time.

Regarding `CCn1cc(C(=O)Nc2cc(F)c(Oc3ccnc4cc(OCCOC)c5c(c34)OCCO5)cc2C)c(=O)n(-c2ccc(F)cc2)c1=O` [Example 180, N-(5-fluoro-4-((5-(2-methoxyethoxy)-2,3-dihydro-[1,4]dioxino[2,3-f]quinolin-10-yl)oxy)-2-methylphenyl)-3-(4-fluorophenyl)-1-ethyl-2,4-dioxo-1,2,3,4-tetrahydropyrimidine-5-carboxamide], the IC50 (with MHCC97H cells; in experiment [1]) was not above 50 nM in each case.
